Measured values from patent publication US5034517A, “Process for producing 2,6-dideoxy-2-fluoro-L-talopyranose” (priority 1986, dated 1991).
Where two headings read alike, the source gives them in different places.

Tests used:
[1] = tested on: experimental tumors; settings: various kinds of tumors; cited from earlier work
[2] = patients; cited from earlier work
[3] = tested on: Leukemia L-1210 cells; experiment: Antitumor activity on leukemia in CDF1 mice caused by Leukemia L-1210 cells (Test 1); settings: for sign of toxicity: 2.5-5 mg/kg/day, in words
Procedure: Antitumor activity on Leukemia in CDF1 mice caused by Leukemia L-1210 cells
In this test, Compounds of formula (m) were assessed in comparison with daunomycin and adriamycin on their tumor inhibitory activity against leukemia in mice Thus, CDF1 mice were intraperitoneally transplanted with cells of Leukemia L-1210 (1×10^5 cells/mouse). From 24 hours after i.p. transplantation of L-1210 cells, each compound to be tested was administered intraperitoneally for 9 consecutive days at once per day. Observation was made for 60 days where survival days of each mouse tested were recorded, and percentage increase in life-span of the treated mice, in comparison with control test wherein mice were treated only with the administration of physiological saline, was calculated as T/C %, where T is the mean survival days of the treated animals and C is the mean survival days of the untreated control animals.

[4] = tested on: Leukemia P 388; settings: cited from earlier work
[5] = tested on: Leukemia L-1210; settings: 25 mg/kg, single dose per day, intraperitoneally for 9 days; cited from earlier work
[6] = tested on: some species of bacteria; experiment: Antibacterial activity; type: cell-based; settings: for antibacterial activity compared with phenol: some species of bacteria; for antibacterial activity: in words
[7] = tested on: Salmonella paratyphi 1015; experiment: MIC by standard serial dilution method; type: cell-based; settings: Salmonella enterica
From the text: (§1) Minimum inhibitory concentrations (MIC., mcg/ml) of the new compounds of formulae (h) and (i) against the growth of some species of bacteria have been determined according to a standard serial dilution method.

[8] = tested on: Micrococcus luteus ATCC 9341; experiment: MIC by standard serial dilution method; type: cell-based; settings: ATCC9341; Micrococcus luteus ATCC 9341 (MS-1)
From the text: as §1

[9] = tested on: Corynebacterium bovis 1810; experiment: MIC by standard serial dilution method; type: cell-based
From the text: as §1

[10] = Stability of glycoside linkage against acid hydrolysis (Test 2); type: physicochemical; settings: for acid hydrolysis, TLC result: 61°-62° C.; for acid hydrolysis: 60° C.; for stability of glycoside linkage against hydrolysis by acid: in words, no conditions
Procedure: Daunomycin (1 mg) was dissolved in a mixture of (0.1 ml) of 0.2N*HCl-80% CH3 CN-H2 O (*the concentration of HCl being 0.2N in the whole mixture) and the solution was heated in oil bath at 61°-62° C. for 30 minutes to cause the hydrolysis. […] The reaction solution was allowed to stand at room temperature to deposit daunomycinone as red crystals.
FTDM (0.7 mg) was suspended in a mixture (0.1 ml) of 0.2N HCl-80% CH3 CN-H2 O and suspension was stirred in an oil bath at 61°-62° C. for 30 minutes.

[11] = tested on: experimental tumors; experiment: Animal tests on experimental tumors; type: in vivo; settings: in words
[12] = in vivo; cited from earlier work
[13] = 0.15 mg/kg/day, i.p., once per day for 9 days, 60 days observation
[14] = 0.3 mg/kg/day, i.p., once per day for 9 days, 60 days observation
[15] = 0.6 mg/kg/day, i.p., once per day for 9 days, 60 days observation
[16] = 1.25 mg/kg/day, i.p., once per day for 9 days, 60 days observation
[17] = 2.5 mg/kg/day, i.p., once per day for 9 days, 60 days observation
[18] = 5 mg/kg/day, i.p., once per day for 9 days, 60 days observation
[19] = 0.2N HCl-80% CH3 CN-H2 O, 30 minutes

COc1cccc2c1C(=O)c1c(O)c3c(c(O)c1C2=O)C[C@@](O)(C(=O)CO)C[C@@H]3O[C@H]1C[C@H](N)[C@H](O)[C@H](C)O1 [Adriamycin, reference compound]
antitumor activity [1]: fairly high antitumor activity against various kinds of tumors
cardiac toxicity [2]: cardiac toxicity
decrease in the number of leukocytes [2]: decrease in the number of leukocytes
falling-off of the hair [2]: falling-off of the hair
% Increase in life-span (T/C) [3, 13]: 123%
% Increase in life-span (T/C) [3, 14]: 136%
% Increase in life-span (T/C) [3, 15]: 142%
% Increase in life-span (T/C) [3, 16]: 222%
% Increase in life-span (T/C) [3, 17]: 228%
% Increase in life-span (T/C) [3, 18]: 191%
sign of toxicity [3]: appearance of toxicity

COc1cccc2c1C(=O)c1c(O)c3c(c(O)c1C2=O)C[C@@](O)(C(C)=O)C[C@@H]3O[C@@H]1O[C@@H](C)[C@@H](OC(C)=O)[C@@H](OC(C)=O)[C@H]1I [Compound NSC 327,472, 7-O-(3,4-di-O-acetyl-2,6-dideoxy-2-iodo-α-L-talohexopyranosyl)daunomycinone]
increase (%) of survival days ([4]; 12.5 mg/kg to 25 mg/kg): 172%
increase (%) of survival days ([4]; 150 mg/kg): 162%

COc1cccc2c1C(=O)c1c(O)c3c(c(O)c1C2=O)C[C@@](O)(C(C)=O)C[C@@H]3O[C@@H]1O[C@@H](C)[C@H](OC(C)=O)[C@@H](OC(C)=O)[C@H]1I [Compound NSC 331,962, 7-O-(3,4-di-O-acetyl-2,6-dideoxy-2-iodo-α-L-manno-hexopyranosyl)daunomycinone]
increase (in %) of survival days (T/C, %) ([4]; 50 mg/kg): 247%
increase (in %) of survival days (T/C, %) [5]: 196%

CO[C@@H]1O[C@@H](C)[C@@H](O)[C@@H](O)[C@H]1F [Compound of formula (h), methyl 2,6-dideoxy-2-fluoro-α-L-talopyranoside]
antibacterial activity compared with phenol [6]: higher antibacterial activity against some species of bacteria than that of phenol
MIC [7]: 100 µg/mL
MIC [8]: 100 µg/mL

C[C@@H]1OC(O)[C@H](F)[C@H](O)[C@@H]1O (stereo partly drawn) [Compound of formula (i), 2,6-dideoxy-2-fluoro-α,β-L-talopyranose]
antibacterial activity [6]: shows antibacterial activity
antibacterial activity compared with phenol [6]: higher antibacterial activity against some species of bacteria than that of phenol
MIC [9]: 100 µg/mL
MIC [7]: 100 µg/mL

COc1cccc2c1C(=O)c1c(O)c3c(c(O)c1C2=O)C[C@@](O)(C(C)=O)C[C@@H]3O[C@@H]1O[C@@H](C)[C@@H](O)[C@@H](O)[C@H]1F [Compound of formula (k), 7-O-(2,6-dideoxy-2-fluoro-α-L-talopyranosyl)daunomycinone]
acid hydrolysis, TLC result [10, 19]: presence of the spot of FTDM only
acid hydrolysis, TLC result ([10]; 0.2N HCl-80% CH3 CN-H2 O, further 3 hours): the spot of FTDM only
acid hydrolysis ([10]; 1N HCl in acetonitrile-water (4:1), 8 hours): remains substantially as it is, without being decomposed
acid hydrolysis, TLC result ([10]; 1N HCl overall, 8 hours): a spot of a trace amount of daumonycinone appeared, but most of FTDM was remaining at it was
stability of glycoside linkage against hydrolysis by acid [10]: high stability against hydrolysis by acid
antitumor activity [11]: excellent antitumor activities
toxicity [11]: low toxicities
antibacterial activity [6]: high antibacterial activities
sign of toxicity [3]: no sign of toxicity
% Increase in life-span (T/C) ([3]; ip, 0.15 mg/kg): 105%
% Increase in life-span (T/C) ([3]; ip, 0.3 mg/kg): 105%
% Increase in life-span (T/C) ([3]; ip, 0.6 mg/kg): 125%
% Increase in life-span (T/C) ([3]; ip, 1.25 mg/kg): 171%
% Increase in life-span (T/C) ([3]; ip, 2.5 mg/kg): 217%
% Increase in life-span (T/C) ([3]; ip, 5 mg/kg): 184%

COc1cccc2c1C(=O)c1c(O)c3c(c(O)c1C2=O)C[C@@](O)(C(=O)CO)C[C@@H]3O[C@@H]1O[C@@H](C)[C@@H](O)[C@@H](O)[C@H]1F [Compound of formula (l), 7-O-(2,6-dideoxy-2-fluoro-α-L-talopyranosyl)adriamycinone]
stability of glycoside linkage against hydrolysis by acid [10]: high stability against hydrolysis by acid
antitumor activity [11]: excellent antitumor activities
toxicity [11]: low toxicities
antibacterial activity [6]: high antibacterial activities
sign of toxicity [3]: no sign of toxicity
% Increase in life-span (T/C) ([3]; ip, 0.15 mg/kg): 127%
% Increase in life-span (T/C) ([3]; ip, 0.3 mg/kg): 182%
% Increase in life-span (T/C) ([3]; ip, 0.6 mg/kg): 185%
% Increase in life-span (T/C) ([3]; ip, 1.25 mg/kg): 275%
% Increase in life-span (T/C) ([3]; ip, 2.5 mg/kg): > 352%
% Increase in life-span (T/C) ([3]; ip, 5 mg/kg): > 740%

COc1cccc2c1C(=O)c1c(O)c3c(c(O)c1C2=O)C[C@@](O)(C(C)=O)C[C@@H]3O[C@H]1C[C@H](N)[C@H](O)[C@H](C)O1 [Daunomycin, reference compound]
antitumor activity [1]: fairly high antitumor activity against various kinds of tumors
acid hydrolysis ([10]; 0.2N HCl in acetonitrile-water (4:1), 30 minutes): completely decomposed
acid hydrolysis, TLC result [10, 19]: disappearance of the spot of daunomycin
% Increase in life-span (T/C) [3, 13]: 132%
% Increase in life-span (T/C) [3, 14]: 112%
% Increase in life-span (T/C) [3, 15]: 145%
% Increase in life-span (T/C) [3, 16]: 158%
% Increase in life-span (T/C) [3, 17]: 171%
% Increase in life-span (T/C) [3, 18]: 138%

COc1cccc2c1C(=O)c1c(O)c3c(c(O)c1C2=O)C[C@@](O)(C(=O)CO)C[C@@H]3O [adriamycinone]
cardiac toxicity compared with daunomycin or adriamycin [12]: higher cardiac toxicity than the daunomycin or adriamycin itself

COc1cccc2c1C(=O)c1c(O)c3c(c(O)c1C2=O)C[C@@](O)(C(C)=O)C[C@@H]3O [daunomycinone]
cardiac toxicity compared with daunomycin or adriamycin [12]: higher cardiac toxicity than the daunomycin or adriamycin itself
